US7074824B2, “Pharmaceutical compositions containing beta-lapachone, or derivatives or analogs thereof, and methods of using same” (Arqule, Inc., priority 2001, dated 2006)
≈ marks a conversion by molar mass, not a printed value. Read-outs that look alike come from different tables or passages of the source.

Assays:
[1] = Solubility of β-lapachone in common solvent systems used for intravenous delivery; format: physicochemical
Excerpt: β-lapachone, as well as its derivatives and analogs thereof (also referred to herein as the “active compounds”), are described in Li, C. J. et al., J. Biol. Chem., 1993. These active compounds can be incorporated into pharmaceutical compositions suitable for parenteral administration. Such compositions typically comprise the active compound and a pharmaceutically acceptable carrier, excipient, diluent or adjuvant. However, the low solubility of β-lapachone in most pharmaceutically acceptable solvents has been an obstacle to the development of a suitable formulation for parenteral and topical administration, particularly intravenous and cutaneous administration, respectively. Table 1 illustrates the limited solubility of β-lapachone in common solvent systems used for intravenous delivery of drugs. […] To achieve this plasma concentration, an intravenous formulation must have a β-lapachone concentration approaching 10 mg/ml and be able to be diluted 5–×10× with sterile fluids for intravenous administration, such as saline or D5W.
Various pharmaceutically acceptable solvent systems known to solubilize hydrophobic drug substances were evaluated with β-lapachone. […] However, none of these systems could be diluted 5× with sterile saline without significant precipitation of the β-lapachone from solution. In addition, most of these co-solvents and surfactants have their own toxicity and tolerability issues that need to be managed during high dose drug administration.

[2] = Solubility in water and in 40% (w/v) HPBCD solution by UV absorbance; format: physicochemical; conditions: for solubility at 1 h: thermodynamic from solid
Procedure: To determine solubilities, test compounds were first dissolved in ethanol to prepare standard solutions with concentrations in the range 2.5–10 mg/ml, then were diluted with to 10 μg/ml with water. UV scans were obtained of the 10 μg/ml standard solutions, and the wavelength of maximum absorbance and the absorbance at the maximum absorbance wavelength were determined. For each test compound 50 μl aliquots of water and of 40% HPBCD were added to individual Eppendorf tubes containing approximately 1 mg of compound each. The tubes were heated in a 30° C. waterbath, vortexed, then centrifuged at 15,000 rpm for 5 min. This step was repeated, then the tubes were cooled to room temperature for 1 hour, then were centrifuged again. The supernatant from each tube was diluted with water into the appropriate absorbance range, and the UV absorbance was measured at the compound's absorbance maximum wavelength. The concentrations of these saturated solutions were then calculated by ratio to the 10 μg/ml ethanolic standard solutions.

human carcinoma cells = assay: Colony formation assay of β-lapachone combined with Taxol®; format: cell-based; conditions: 4 h exposure, colonies scored after 10–20 days; ovarian, breast, prostate, melanoma, lung and pancreatic cell lines, FIG. 4
Procedure: In these studies, exponentially growing cells were seeded at 1,000 cells per well in six-well plates and allowed to attach for 48 h. β-lapachone and/or Taxol®, solubilized in DMSO, were added to the wells. Control wells were treated with equivalent volumes of DMSO. After 4 h cells were rinsed and fresh medium was added. Cultures were observed daily for 10–20 days and then were fixed and stained. Colonies of greater than 30 cells were scored as survivors.

A2780DDP = test system: A2780DDP
Procedure: In testing β-lapachone against the cisplatin-resistant-cell lines, cells were exposed to β-lapachone solutions for 4 h. The cells were then rinsed and fresh medium was added. Cultures were observed daily for 10–20 days and then were fixed and stained. Colonies of greater than 30 cells were scored as survivors.

[3] = biological target: T1, human DNA Topoisomerases I (Homo sapiens, UniProt P11387); conditions: cited from earlier work
T1 sequence (P11387 1-765): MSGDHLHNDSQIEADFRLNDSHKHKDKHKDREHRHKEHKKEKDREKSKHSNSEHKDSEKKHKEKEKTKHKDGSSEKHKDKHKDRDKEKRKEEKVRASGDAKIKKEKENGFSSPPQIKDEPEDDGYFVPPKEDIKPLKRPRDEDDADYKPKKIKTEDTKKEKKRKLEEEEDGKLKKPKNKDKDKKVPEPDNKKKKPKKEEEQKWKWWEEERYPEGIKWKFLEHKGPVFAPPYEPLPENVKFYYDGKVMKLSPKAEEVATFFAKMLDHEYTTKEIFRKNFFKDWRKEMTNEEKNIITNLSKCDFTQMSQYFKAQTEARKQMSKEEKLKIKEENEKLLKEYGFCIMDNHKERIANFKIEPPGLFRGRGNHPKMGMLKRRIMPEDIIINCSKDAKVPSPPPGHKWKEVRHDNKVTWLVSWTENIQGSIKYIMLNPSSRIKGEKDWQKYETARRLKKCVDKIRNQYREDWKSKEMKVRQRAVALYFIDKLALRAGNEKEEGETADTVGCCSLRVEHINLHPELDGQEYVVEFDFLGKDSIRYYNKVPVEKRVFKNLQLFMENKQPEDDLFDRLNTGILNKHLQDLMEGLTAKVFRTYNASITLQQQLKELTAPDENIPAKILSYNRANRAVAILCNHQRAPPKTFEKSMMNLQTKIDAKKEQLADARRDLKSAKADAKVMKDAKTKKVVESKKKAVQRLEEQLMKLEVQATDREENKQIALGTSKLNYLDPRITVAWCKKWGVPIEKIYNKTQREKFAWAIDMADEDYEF

[4] = biological target: human DNA Topoisomerases II (Homo sapiens, UniProt P11388); conditions: cited from earlier work
human DNA Topoisomerases II, sequence (P11388 whole entry): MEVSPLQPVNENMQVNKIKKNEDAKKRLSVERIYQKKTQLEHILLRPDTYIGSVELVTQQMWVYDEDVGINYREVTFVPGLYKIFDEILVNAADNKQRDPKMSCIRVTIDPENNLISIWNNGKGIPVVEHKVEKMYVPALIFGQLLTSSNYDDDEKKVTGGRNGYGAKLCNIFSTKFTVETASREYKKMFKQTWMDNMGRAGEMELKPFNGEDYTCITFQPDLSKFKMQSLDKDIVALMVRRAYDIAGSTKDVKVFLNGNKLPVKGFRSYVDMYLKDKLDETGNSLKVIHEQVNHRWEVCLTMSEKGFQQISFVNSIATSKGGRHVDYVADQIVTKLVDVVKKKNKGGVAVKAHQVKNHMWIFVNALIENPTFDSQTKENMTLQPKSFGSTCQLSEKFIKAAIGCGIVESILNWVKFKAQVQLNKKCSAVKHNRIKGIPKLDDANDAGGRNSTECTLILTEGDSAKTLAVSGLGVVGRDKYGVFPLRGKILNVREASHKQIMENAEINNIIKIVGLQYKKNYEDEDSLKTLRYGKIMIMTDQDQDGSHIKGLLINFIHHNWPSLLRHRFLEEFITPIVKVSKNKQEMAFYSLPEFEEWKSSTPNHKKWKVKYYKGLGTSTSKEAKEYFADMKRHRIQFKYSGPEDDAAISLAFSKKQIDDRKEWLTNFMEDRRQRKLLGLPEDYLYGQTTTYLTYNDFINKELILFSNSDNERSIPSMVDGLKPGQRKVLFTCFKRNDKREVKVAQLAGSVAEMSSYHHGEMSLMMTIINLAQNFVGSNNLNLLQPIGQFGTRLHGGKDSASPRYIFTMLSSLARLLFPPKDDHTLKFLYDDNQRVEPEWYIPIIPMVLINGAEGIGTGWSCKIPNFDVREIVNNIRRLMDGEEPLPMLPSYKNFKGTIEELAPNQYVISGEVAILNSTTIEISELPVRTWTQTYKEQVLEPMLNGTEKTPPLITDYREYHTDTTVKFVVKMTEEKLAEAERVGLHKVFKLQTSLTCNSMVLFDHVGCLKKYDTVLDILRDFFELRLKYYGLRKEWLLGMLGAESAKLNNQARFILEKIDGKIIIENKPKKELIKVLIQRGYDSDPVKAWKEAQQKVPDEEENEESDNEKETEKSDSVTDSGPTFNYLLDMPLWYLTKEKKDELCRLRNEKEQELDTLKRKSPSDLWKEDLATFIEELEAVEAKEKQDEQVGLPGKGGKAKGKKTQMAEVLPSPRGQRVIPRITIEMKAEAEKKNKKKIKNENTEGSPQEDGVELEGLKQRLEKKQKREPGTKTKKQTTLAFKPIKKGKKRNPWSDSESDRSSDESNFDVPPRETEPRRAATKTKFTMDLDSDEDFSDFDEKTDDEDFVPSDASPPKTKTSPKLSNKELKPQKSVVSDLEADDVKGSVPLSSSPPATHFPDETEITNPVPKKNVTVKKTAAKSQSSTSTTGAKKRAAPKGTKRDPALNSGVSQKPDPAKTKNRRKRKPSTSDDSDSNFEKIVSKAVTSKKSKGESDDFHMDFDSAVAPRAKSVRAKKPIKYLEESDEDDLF

For `CC1(C)CCC2=C(O1)c1ccccc1C(=O)C2=O` [β-lapachone], the solubility ([1]; EtOH 76% diluted 5X in 0.9% saline, aqueous with cosolvent or surfactant or cyclodextrin, EtOH 76%, diluted in 0.9% saline, read-out: β-lapachone Solubility, 5X dilution) was 102 µg/mL (≈ 0.423 mM), the solubility ([1]; EtOH 76%, organic solvent or mixture, read-out: β-lapachone Solubility, Undiluted) was 10700 µg/mL (≈ 44 mM) and the solubility ([1]; PEG 400, organic solvent or mixture, read-out: β-lapachone Solubility, Undiluted) was 11700 µg/mL (≈ 48.2 mM). For the same compound, the solubility ([1]; PEG 400 diluted 5X in 0.9% saline, aqueous with cosolvent or surfactant or cyclodextrin, PEG 400, diluted in 0.9% saline, read-out: β-lapachone Solubility, 5X dilution) was 140 µg/mL (≈ 0.578 mM), the solubility ([1]; Poloxamer 20% diluted 5X in 0.9% saline, aqueous with cosolvent or surfactant or cyclodextrin, Poloxamer 20%, diluted in 0.9% saline, read-out: β-lapachone Solubility, 5X dilution) was 33.1 µg/mL (≈ 0.137 mM) and the solubility ([1]; Poloxamer 20%, aqueous with cosolvent or surfactant or cyclodextrin, read-out: β-lapachone Solubility, Undiluted) was 2040 µg/mL (≈ 8.4 mM). For the same compound, the solubility ([1]; Povidone K12 20% diluted 5X in 0.9% saline, aqueous with cosolvent or surfactant or cyclodextrin, Povidone K12 20%, diluted in 0.9% saline, read-out: β-lapachone Solubility, 5X dilution) was 31.3 µg/mL (≈ 0.129 mM), the solubility ([1]; Povidone K12 20%, aqueous with cosolvent or surfactant or cyclodextrin, read-out: β-lapachone Solubility, Undiluted) was 1860 µg/mL (≈ 7.68 mM) and the solubility ([1]; Povidone K17 20% diluted 5X in 0.9% saline, aqueous with cosolvent or surfactant or cyclodextrin, Povidone K17 20%, diluted in 0.9% saline, read-out: β-lapachone Solubility, 5X dilution) was 31.2 µg/mL (≈ 0.129 mM). It also gave a solubility ([1]; Povidone K17 20%, aqueous with cosolvent or surfactant or cyclodextrin, read-out: β-lapachone Solubility, Undiluted) of 1820 µg/mL (≈ 7.53 mM), a solubility ([1]; Propylene Glycol diluted 5X in 0.9% saline, aqueous with cosolvent or surfactant or cyclodextrin, Propylene Glycol, diluted in 0.9% saline, read-out: β-lapachone Solubility, 5X dilution) of 95 µg/mL (≈ 0.392 mM) and a solubility ([1]; Propylene Glycol, organic solvent or mixture, read-out: β-lapachone Solubility, Undiluted) of 8780 µg/mL (≈ 36.2 mM). For the same compound, the solubility ([1]; Trappsol 20% diluted 5X in 0.9% saline, aqueous with cosolvent or surfactant or cyclodextrin, Trappsol 20%, diluted in 0.9% saline, read-out: β-lapachone Solubility, 5X dilution) was 30 µg/mL (≈ 0.124 mM), the solubility ([1]; Trappsol 20%, aqueous with cosolvent or surfactant or cyclodextrin, read-out: β-lapachone Solubility, Undiluted) was 1460 µg/mL (≈ 6.05 mM) and the solubility ([1]; Tween 80, aqueous with cosolvent or surfactant or cyclodextrin, read-out: β-lapachone Solubility, Undiluted) was 11200 µg/mL (≈ 46.1 mM). The solubility ([1]; Tween 80 diluted 5X in 0.9% saline, aqueous with cosolvent or surfactant or cyclodextrin, Tween 80, diluted in 0.9% saline, read-out: β-lapachone Solubility, 5X dilution) was 1660 µg/mL (≈ 6.83 mM), the solubility ([1]; organic solvent or mixture, highest of all solvent systems, undiluted, read-out: maximum solubility in the solvents listed in Table 1) was roughly 12000 µg/mL (≈ 49.5 mM) and the “Solubility Enhancement” value ([2]; 1 h) was 323 −Fold. For the same compound, the solubility at 1 h ([2]; aqueous with cosolvent or surfactant or cyclodextrin) was 14000 µg/mL (≈ 57.8 mM), the solubility at 1 h ([2]; water) was 43 µg/mL (≈ 0.177 mM) and the “inhibition of cancer cell survival (colony formation)” value (human carcinoma cells) was “much less effective”. The “cytotoxicity as single agent, resistant versus parent line” value (A2780DDP) was “equally cytotoxic”, the in vitro inhibition [3] was “potent in vitro inhibition” and the in vitro inhibition [4] was “potent in vitro inhibition”.
